This passage reports Activity results from ChEMBL document CHEMBL4828752, “Discovery of 1,2,4-triazine dithiocarbamate derivatives as NEDDylation agonists to inhibit gastric cancers” (Eur J Med Chem, 2021).

Calls of active or inactive are those of the source. The rule behind the calls is not given here.

The target in assay [1] is T1, NEDD8-activating enzyme E1 regulatory subunit (Homo sapiens) (UniProt Q13564).
T1 sequence (whole entry): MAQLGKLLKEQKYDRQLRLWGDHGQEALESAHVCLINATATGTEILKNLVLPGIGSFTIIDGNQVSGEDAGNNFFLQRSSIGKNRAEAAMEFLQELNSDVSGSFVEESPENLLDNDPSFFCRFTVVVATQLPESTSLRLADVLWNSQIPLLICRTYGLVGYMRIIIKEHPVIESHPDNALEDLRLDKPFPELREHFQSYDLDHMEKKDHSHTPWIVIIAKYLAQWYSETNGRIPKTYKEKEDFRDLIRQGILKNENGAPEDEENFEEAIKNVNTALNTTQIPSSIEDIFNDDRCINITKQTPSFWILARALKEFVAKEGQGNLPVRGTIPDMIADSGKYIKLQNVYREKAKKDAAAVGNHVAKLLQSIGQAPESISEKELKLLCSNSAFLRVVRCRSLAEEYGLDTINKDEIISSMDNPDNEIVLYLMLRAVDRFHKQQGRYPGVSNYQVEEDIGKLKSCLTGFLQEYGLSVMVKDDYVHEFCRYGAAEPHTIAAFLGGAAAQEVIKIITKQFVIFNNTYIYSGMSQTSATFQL
As to the kind of experiment: Activation of NAE1-mediated neddylation in human HGC-27 cells assessed as increase in NAE1-NEDD8 level incubated for 12 hrs by western blot analysis. The assay is classed as cell-based. The settings on record: filed as agonist, dose 1-9 µM. For orientation: Immunoblotting shows a protein as a band on a membrane.

Assay [2] has as its target T1, NEDD8-activating enzyme E1 regulatory subunit (Homo sapiens). In words: Activation of NAE1-mediated neddylation in human MGC-803 cells assessed as increase in Ubc12-NEDD8 level incubated for 12 hrs by western blot analysis. Format: cell-based. The conditions noted are these: filed as agonist, dose 1-3 µM.
Assay [3] has the same target. In words: Activation of NAE1-mediated neddylation in human MGC-803 cells assessed as increase in Cullin1-NEDD8 level incubated for 12 hrs by western blot analysis. Format: cell-based. The conditions noted are these: filed as agonist, dose 1-3 µM.
Assay [4] relates to MGC-803. As to the kind of experiment: Induction of cell morphological changes in human MGC-803 cells assessed as reduction in cell density at 1 to 3 uM incubated for 48 hrs by calcein-AM/PI staining based fluorescence analysis. The assay is classed as functional. The conditions noted are these: dose 1-3 µM.
In assay [5] the test system is MGC-803. In words: Induction of cell morphological changes in human MGC-803 cells assessed as increase in dead cells by measuring red fluorescence at 1 to 3 uM incubated for 48 hrs by calcein-AM/PI staining based fluorescence analysis. The assay is classed as functional. The settings on record: dose 1-3 µM.
Assay [6] has as its target T1, NEDD8-activating enzyme E1 regulatory subunit (Homo sapiens). In words: Activation of NAE1-mediated protein degradation in human MGC-803 cells assessed as decrease in c-IAPI level at 1 to 3 uM measured after 48 hrs by western blot analysis. The settings on record: filed as agonist, dose 1-3 µM. The assay is classed as cell-based.
For assay [7] the target is unchanged. As to the kind of experiment: Activation of NAE1 in human MGC-803 cells assessed as downregulation of YAP/TAZ level at 3 uM measured after 48 hrs in the presence of proteosome inhibitor, MG132 by western blot analysis. The assay is classed as cell-based.
Assay [8] has as its system MGC-803. In words: Induction of cell morphological changes in human MGC-803 cells at 3 uM measured after 48 hrs in the presence of NEDDylation inhibitor, MLN4924 by DAPI staining based fluorescence analysis. Format: functional.
The subject of assay [9] is MGC-803. As to the kind of experiment: Induction of cell morphological changes in human MGC-803 cells transfected with NEDD8 siRNA assessed as increase in dead cells by measuring red fluorescence at 3 uM measured after 48 hrs by calcein-AM/PI staining based fluorescence analysis. The assay is classed as functional.
For assay [10], the system named is HGC-27. In words: Induction of apoptosis in human HGC-27 cells assessed as down regulation of Mcl-1 protein level at 1 to 9 uM measured after 48 hrs by western blot analysis. The assay is classed as functional, cell-based. The conditions noted are these: dose 1-9 µM.
Assay [11] deals with HGC-27. In words: Induction of apoptosis in human HGC-27 cells assessed as down regulation of Bcl-2 protein level at 1 to 9 uM measured after 48 hrs by western blot analysis. The assay is classed as functional, cell-based. The conditions noted are these: dose 1-9 µM.
The subject of assay [12] is MGC-803. In words: Induction of G2/M phase arrest in human MGC-803 cells assessed as upregulation of p-histone H3 expression at 1 to 3 uM measured after 48 hrs by western blot analysis. The settings on record: dose 1-3 µM. Format: functional, cell-based.
The target in assay [13] is T1, NEDD8-activating enzyme E1 regulatory subunit (Homo sapiens). As to the kind of experiment: Activation of NAE1-mediated protein degradation in human MGC-803 cells assessed as decrease in YAP/TAZ level at 3 uM measured after 48 hrs in presence of NEDDylation inhibitor, MLN4924 by western blot analysis. Format: cell-based.

On to `COc1cc(-c2nc(NC(=O)CSC(=S)N3CCN(C(=O)OC(C)(C)C)CC3)nnc2-c2ccc(C)cc2)cc(OC)c1OC`, for which the Activity result in assay [1], in assay [2] and in assay [3] was “Dose-Dependent Effect” each time. Further, the outcome in [4], in assay [5], in [6], in assay [10], in [11] and in [12] was Active. Further, the result in assay [7], in assay [8], in [9] and in assay [13] was inactive.
